The results in this text go back to paper PMC10964739 (Toxicological Sciences, 2024).

Structures are written as SMILES.

Test [1] concerns the target TOP2A (topoisomerase IIα) (Homo sapiens, UniProt P11388). Description: kDNA decatenation assay with recombinant enzyme. The format is biochemical.
The target of test [2] is TOP2B (topoisomerase IIβ) (Homo sapiens, UniProt Q02880). Briefly: kDNA decatenation assay with recombinant enzyme. Format: biochemical.

A word on the IC50: it is the point on the concentration scale where inhibition reaches its midpoint.

Chain of TOP2B (topoisomerase IIβ) (Q02880 2-1626): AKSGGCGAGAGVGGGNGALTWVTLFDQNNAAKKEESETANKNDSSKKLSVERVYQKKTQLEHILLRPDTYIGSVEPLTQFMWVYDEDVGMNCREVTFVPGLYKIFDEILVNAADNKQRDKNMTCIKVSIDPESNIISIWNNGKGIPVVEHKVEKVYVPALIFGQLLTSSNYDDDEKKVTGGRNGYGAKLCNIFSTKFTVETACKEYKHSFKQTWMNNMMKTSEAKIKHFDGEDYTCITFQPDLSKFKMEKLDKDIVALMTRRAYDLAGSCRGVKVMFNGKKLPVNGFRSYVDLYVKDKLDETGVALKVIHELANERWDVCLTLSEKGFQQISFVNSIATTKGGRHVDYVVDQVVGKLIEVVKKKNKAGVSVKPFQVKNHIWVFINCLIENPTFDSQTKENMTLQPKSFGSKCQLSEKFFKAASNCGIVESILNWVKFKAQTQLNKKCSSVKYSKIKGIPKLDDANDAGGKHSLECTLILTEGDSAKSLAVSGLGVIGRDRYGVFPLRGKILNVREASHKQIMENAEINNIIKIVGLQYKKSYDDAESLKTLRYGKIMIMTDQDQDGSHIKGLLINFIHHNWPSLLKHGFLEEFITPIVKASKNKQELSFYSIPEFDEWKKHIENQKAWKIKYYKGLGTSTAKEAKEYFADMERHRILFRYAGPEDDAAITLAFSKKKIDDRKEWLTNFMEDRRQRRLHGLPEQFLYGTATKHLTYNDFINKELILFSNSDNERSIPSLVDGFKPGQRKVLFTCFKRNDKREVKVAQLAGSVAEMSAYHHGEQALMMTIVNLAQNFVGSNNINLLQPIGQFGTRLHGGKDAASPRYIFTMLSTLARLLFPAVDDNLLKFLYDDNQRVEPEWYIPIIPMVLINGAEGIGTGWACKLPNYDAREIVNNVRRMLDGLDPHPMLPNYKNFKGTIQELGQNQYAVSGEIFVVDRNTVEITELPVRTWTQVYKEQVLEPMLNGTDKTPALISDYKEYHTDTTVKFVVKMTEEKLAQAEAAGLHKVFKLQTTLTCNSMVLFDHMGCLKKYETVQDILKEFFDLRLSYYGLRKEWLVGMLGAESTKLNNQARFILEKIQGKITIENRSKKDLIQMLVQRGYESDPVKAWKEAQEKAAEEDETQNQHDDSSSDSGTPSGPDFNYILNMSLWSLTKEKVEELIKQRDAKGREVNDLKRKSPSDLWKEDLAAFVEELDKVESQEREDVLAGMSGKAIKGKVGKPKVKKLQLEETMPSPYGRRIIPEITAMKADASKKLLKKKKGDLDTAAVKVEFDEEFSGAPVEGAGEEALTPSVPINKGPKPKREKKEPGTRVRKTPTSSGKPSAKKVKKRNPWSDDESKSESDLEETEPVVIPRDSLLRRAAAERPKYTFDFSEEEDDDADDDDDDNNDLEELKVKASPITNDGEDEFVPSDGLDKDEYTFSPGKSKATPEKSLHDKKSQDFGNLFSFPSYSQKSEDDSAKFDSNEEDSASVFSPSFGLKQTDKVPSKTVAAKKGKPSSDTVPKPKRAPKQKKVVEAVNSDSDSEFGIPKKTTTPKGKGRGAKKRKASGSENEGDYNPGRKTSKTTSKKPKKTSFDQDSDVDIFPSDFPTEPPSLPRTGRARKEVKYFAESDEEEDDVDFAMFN
Chain of TOP2A (topoisomerase IIα) (P11388 whole entry): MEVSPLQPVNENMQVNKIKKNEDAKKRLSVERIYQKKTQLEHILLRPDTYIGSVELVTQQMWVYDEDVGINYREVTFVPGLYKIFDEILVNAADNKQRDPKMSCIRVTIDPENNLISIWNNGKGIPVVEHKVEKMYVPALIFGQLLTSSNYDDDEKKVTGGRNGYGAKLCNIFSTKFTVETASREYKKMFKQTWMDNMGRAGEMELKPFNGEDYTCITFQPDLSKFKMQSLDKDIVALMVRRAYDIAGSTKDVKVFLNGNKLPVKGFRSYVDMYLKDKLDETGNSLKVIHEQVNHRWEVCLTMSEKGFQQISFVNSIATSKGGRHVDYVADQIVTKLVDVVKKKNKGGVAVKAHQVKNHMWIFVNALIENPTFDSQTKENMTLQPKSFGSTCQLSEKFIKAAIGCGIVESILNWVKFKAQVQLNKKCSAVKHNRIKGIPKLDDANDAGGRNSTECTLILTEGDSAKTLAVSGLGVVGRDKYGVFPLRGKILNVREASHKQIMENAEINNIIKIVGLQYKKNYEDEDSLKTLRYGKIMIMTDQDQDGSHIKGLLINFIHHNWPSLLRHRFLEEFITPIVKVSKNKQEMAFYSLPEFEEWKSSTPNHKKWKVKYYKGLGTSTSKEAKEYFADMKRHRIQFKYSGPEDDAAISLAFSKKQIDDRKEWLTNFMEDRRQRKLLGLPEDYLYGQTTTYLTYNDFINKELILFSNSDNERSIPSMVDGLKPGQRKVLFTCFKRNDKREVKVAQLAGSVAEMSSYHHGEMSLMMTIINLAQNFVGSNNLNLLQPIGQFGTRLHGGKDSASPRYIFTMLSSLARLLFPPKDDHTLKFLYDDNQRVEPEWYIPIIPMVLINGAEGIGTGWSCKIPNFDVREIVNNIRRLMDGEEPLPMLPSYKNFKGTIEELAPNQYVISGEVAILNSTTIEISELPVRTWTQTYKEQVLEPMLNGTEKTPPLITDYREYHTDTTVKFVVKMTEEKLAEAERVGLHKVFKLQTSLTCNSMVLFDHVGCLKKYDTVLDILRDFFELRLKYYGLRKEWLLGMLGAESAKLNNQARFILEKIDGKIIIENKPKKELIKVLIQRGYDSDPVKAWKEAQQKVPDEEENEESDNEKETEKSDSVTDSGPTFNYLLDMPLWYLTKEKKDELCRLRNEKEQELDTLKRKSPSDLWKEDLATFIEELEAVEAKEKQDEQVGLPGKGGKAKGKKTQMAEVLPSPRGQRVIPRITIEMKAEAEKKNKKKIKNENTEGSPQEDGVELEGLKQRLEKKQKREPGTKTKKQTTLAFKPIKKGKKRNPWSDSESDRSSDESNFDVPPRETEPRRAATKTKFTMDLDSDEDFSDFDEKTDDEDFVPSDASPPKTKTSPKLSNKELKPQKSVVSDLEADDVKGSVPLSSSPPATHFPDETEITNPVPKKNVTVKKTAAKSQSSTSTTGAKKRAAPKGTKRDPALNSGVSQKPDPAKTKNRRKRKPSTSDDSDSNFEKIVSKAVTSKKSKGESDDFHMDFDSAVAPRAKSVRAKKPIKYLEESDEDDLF

For `CC(Oc1ccc(Oc2cnc3ccc(Cl)cc3n2)cc1)C(=O)O` (racemic) [XK469, 2(R)-[4-(7-chloro-2-quinoxalinyl)oxyphenoxy]propionic acid], the IC50 in test [1] and in test [2] was roughly 130 µM in each case.

With `C[C@@H](CN1CC(=O)NC(=O)C1)N1CC(=O)NC(=O)C1` [DEX, dexrazoxane], the IC50 in test [1] and in test [2] was roughly 60 µM throughout.
